Results taken from paper PMC9231138, “Dihydrotanshinone I Enhances Cell Adhesion and Inhibits Cell Migration in Osteosarcoma U−2 OS Cells through CD44 and Chemokine Signaling” (Molecules, 2022).

Key:
Assay type in all cases: cell-based, human
HeLa cells = experiment: Cell adhesion against trypsin digestion, HeLa cells; details: DS-1 10.0, 15.0, 20.0 μM for 24 h
Excerpt: Dihydrotanshinone I enhances cell adhesion and inhibits cell migration in osteosarcoma U-2 OS cell through CD44
Lanyan Fan1, 2, Chen Peng2, Xiaoping Zhu1, 2, Yawen Liang2, Ti anyi Xu2, Peng Xu1 and Shihua Wu1, 2* 1 Joint Research Centre for Engineering Biology, Zhejiang University-University of Edinburgh Institute, Zhejiang University, Haining 314400, China
2 Research Center of Siyuan Natural Pharmacy and Biotoxicology, College of Life Sciences, Zhejiang University, Hangzhou, Zhejiang Province 310058, China
* Correspondence: Drwushihua@zju.edu.cn, Shihuawu@intl.zju.edu.cn; Tel.: +86-13968131541 Legends for Supplementary figures
Figure S1. The chemical structures of major tanshinones isolated from Salvia miltiorrhiza rhizome.
Figure S2. The effects of DS-1 on HeLa cell adhesion on cell culture plates against trypsin digestion. (A) Hela cells were seeded at 80000 per well in 6-well plates for 12 h, then treated with 0, 10.0, 15.0, 20.0 μM DS-1 for 24 h.
After that, cells were washed by PBS solution and digested by 400 μL 0.25% trypsin. During the digestion, cellular morphology was recorded by inverted microscope with camera every 30 seconds. The digestion time […]
Figure S3. […]
cellular morphology was recorded by inverted microscope every 30 seconds. […]
Figure S4. […] The relative expression of CD44 was detected by Western Blot and […]

E-cadherin = experiment: RT-PCR E-cadherin mRNA in U−2 OS cells; details: 24 h
Procedure: Total RNA within cells was extracted by the RNAeasy™ Animal Long RNA Isolation Kit with Spin Column (Shanghai, Beyotime); the concentrations and OD260/OD280 and OD230/OD260 values were measured by NanoDrop. Five micrograms of RNA was used for reverse transcription; each sample was diluted to 16 μL, and 4 μL of synthesized premix solution (5×) was added, then the mixtures were placed in a 42 °C water bath for 10 min, then an 80 °C water bath for 10 min to deactivate reverse transcriptase. After reverse transcription, each sample was diluted to 140 μL. PCR amplification was carried out by the ABI700 real-time PCR system, and the amplification reaction was detected with a SYBR probe. After PCR, actin and GAPDH were used as internal references, and the relative standard curve method (2^−ΔΔcT) determined the relative expression of mRNA.

U−2 OS cells = experiment: Scratch motility (wound-healing) assay
Procedure: U-2 OS cells were seeded in 6-well plates at a density of 200,000 per well and cultured to 90% abundance after 18 h. The cells were scratched with a 10 μL pipette tip along the ruler; each well was scratched 3 times in parallel, and the line was drawn perpendicular to the scratch on the back for fixed-point photography. We suctioned the previous medium and washed the cells with a PBS reagent. Then, we added 2% FBS medium with DS−1 and cultured the cells at 37 °C for different times. After 0, 24, and 48 h, the plate was taken out, and the scratches were observed and photographed by the inverted microscope, while the distance of scratches at different times was measured.
Cell mobility = (pre-migration distance – post-migration distance)/pre-migration distance × 100%. The cell migration rate of blank control was set as 100%, and the relative cell migration rate = cell migration rate/cell migration rate of control group × 100%

[1] = tested on: U−2 OS cells transfected with CD44 siRNA; experiment: Trypsin digestion time, CD44 siRNA knockdown U−2 OS cells; details: DS−1 7.5 μM for 24 h, 25 °C, control about 120 s
Procedure: Figure 8 CD44 knockdown reduced cell adhesion by shortening cell protrusions. (A) U−2 OS cells transfected with CD44 siRNA and no siRNA were seeded into a 24-well plate treated with 7.5 μM DS−1 for 24 h, and the expression of CD44 was detected by immunofluorescence. (B) CD44 expression of U−2 OS cells was detected by Western blotting after being treated with siRNA for 0, 24, and 36 h. (C) U−2 OS cells were first transfected with/without CD44 siRNA and then treated with DS−1 for 24 h, and its actin morphologies were detected. The representative magnified actin morphologies are listed in (D). (E) The lengths of protrusions in (C) were analyzed by Image J and are shown in a scatterplot graph. The lengths of 20 protrusions from actin in (C) were calculated. Each value is the average of 20 lengths of protrusions, ** p < 0.01, *** p < 0.005. (F) U−2 OS cells were transfected with CD44 siRNA, then treated with 0 and 7.5 μM DS−1 for 24 h and digested with trypsin at 25 °C; the digestion time was recorded by a microscope, and photos were taken every 30 s. The percentage of digested cells is recorded in (G).
Small interfering RNA (siRNA) oligonucleotide was synthesized by Sunya Biotechnology Co., Ltd (Hangzhou, China). The siRNA sequences were as follows: sense (5′–3′), UAUUCCACGUGGAGAAAAAtt; antisense (5′–3′), UUUUUCUCCACGUGGAAUAca. […]

Cc1cccc2c3c(ccc12)C1=C(C(=O)C3=O)[C@@H](C)CO1 [DS−1, 15,16-Dihydrotanshinone I]
cell adhesion against trypsin digestion on cell culture plates (HeLa cells): not significant | E-cadherin mRNA, fold of the control group (E-cadherin; DS−1 2.5 µM): 1.21 ± 0.16 fold | E-cadherin mRNA, fold of the control group (E-cadherin; DS−1 5.0 µM): 1.26 ± 0.25 fold | E-cadherin mRNA, fold of the control group (E-cadherin; DS−1 7.5 µM): 1.61 ± 0.16 fold | relative mobility compared to control cells (U−2 OS cells; DS−1 2.5 µM, 24 h): 24.8 ± 9.9% | relative mobility compared to control cells (U−2 OS cells; DS−1 2.5 μM, 48 h): 18.1 ± 6.6% | relative mobility compared to control cells (U−2 OS cells; DS−1 5.0 µM, 24 h): 17.5 ± 6.6% | relative mobility compared to control cells (U−2 OS cells; DS−1 5.0 μM, 48 h): 7.3 ± 7.1% | relative mobility compared to control cells (U−2 OS cells; DS−1 7.5 µM, 24 h): 6.6 ± 0.8% | relative mobility compared to control cells (U−2 OS cells; DS−1 7.5 μM, 48 h): 4.3 ± 1.8% | time to total trypsin digestion [1]: ≤ 150 s
